In publication PMC7608335 (Acta Pharmacologica Sinica, 2020):

Assays:
[1] = molecular target: T1, CaV1.2 channel (α1C subunit) (Rattus norvegicus, UniProt P22002); experiment: whole-cell patch clamp of ICa1.[…]; assay type: cell-based; conditions: read-out: % inhibition at 100 μM
[2] = molecular target: T1, CaV1.2 channel (α1C subunit); experiment: whole-cell patch clamp; assay type: cell-based; conditions: read-out: % of control at 100 nM

Compound	inhibition at 100 µM [1] [%]	remaining activity at 0.1 µM [2] [%]
O=C(c1ccc(F)cc1)C1CCN(CCn2c(=O)[nH]c3ccccc3c2=O)CC1 [ketanserin, 3-[2-[4-(4-fluorobenzoyl)piperidin-1-yl]ethyl]-1H-quinazoline-2,4-dione]	~50	
COC(=O)C1=C(C)NC(C)=C([N+](=O)[O-])[C@H]1c1ccccc1C(F)(F)F [Bay K 8644, (S)-(-)-methyl-1,4-dihydro-2,6-dimethyl-3-nitro-4-(2-trifluoromethylphenyl)pyridine-5-carboxylate]		524
